Entries after “also recorded” stand apart in the source; their conditions may differ. Where two headings read alike, the source gives them in different places. Where a SMILES comes first, the peptide text is derived from it. The star is where a group is joined. NHC(CH2O-Palmitoyl)3 = CCCCCCCCCCCCCCCC(=O)OCC(COC(=O)CCCCCCCCCCCCCCC)(COC(=O)CCCCCCCCCCCCCCC)N*; X3 = CCCCCCCCCCCCCC(=O)OCC(CO)(CO)N*; X2 = CCCCCCCCCCCC(=O)OCC(CO)(CO)N*
Tests used:
Cos 1 cells [1] = test: Transfection of pSVLCAT, CAT assay, Cos 1; format: cell-based, African Green Monkey
Protocol: To test the transfection properties of the lead compound K3ATP3 (VerafectinA3), whole uncut plasmid carrying the gene encoding CAT (chloramphenicol acetyl transferase) under the control of the SV40 late promoter, pSVLCAT (Cameron, F. H. and Jennings, P. A. (1989) PNAS 86, 9139-9143) was mixed with the test agent and put on Cos 1 cells under various conditions. After 48 hours of culture the level of secreted CAT was assayed from the culture medium.
Solution I: 1 μg Plasmid DNA in 500 μl Dulbeccos Modified Eagles Medium (DME)
Solution II: 0-20 μl VerafectinA3 (2.5 mg/ml 25% DMSO) in 500 μl DME, Vortex
Combine solution I and II, vortex briefly and incubate at room temperature for 10 min.
Add mix to washed cells in 60 mm tissue culture dishes (seeded 0.5×10^6 /dish previous day) for 6 hrs at 37° C., 5% C02. Add 2 ml DME+10% FCS for remainder of 48 hrs. Assay CAT levels in tissue culture medium (Sleigh, M. J. (1986) Anal. Biochem. 156.251-256).
a--Compare VerafectinA3 dissolved in DMSO or ethanol.
b--Compare VerafectinA3 on cells 6 hrs to overnight. VerafectinA3 at 10 mg/ml in 100% solvent was diluted to 2.5 mg/ml with water.
Transfection was carried out as for experiment 1. VerafectinA3 was left in contact with the cells for varying times.
Protocol was the same for the Verafectins as described above. Lipofectamine protocol was according to manufacturers instructions. Cos 1 cells were seeded at 5×10^5 /60 mm dish and adhered overnight in DME with 10% FCS.
Solution A: 0.5 μg pSVLCAT/60 mm dish.
Solution B: Lipofectamine 10 and 15 μl 2 mg/ml (mixed formulation 3:1 with DOPE).
OR; VerafectinA3 and VerafectinG2 20 μl 2 mM (2.8 and 2.3 mg/ml respectively) stock.
OR; VerafectinG2 was also tested with an equimolar amount of DOPE. VerafectinG2 and DOPE were mixed in DDME and vortexed for 30 seconds before use. Solutions A and B were combined before overlaying on washed cells.
The serum free incubation period in the presence of test agents and DNA was 6 hrs, then 1 ml DME+10% FCS was added. At 24 hours medium was changed to 2 ml fresh DME+10% FCS until harvest at 48 hrs.
(§1) Cell lines Cos 1 or CHO were transfected with 0.5 μg of pSVLCAT or 2 μg of pPGKlacZ plasmid using a range of concentrations of each transfection compound. The optimal concentration of compound, that is the concentration giving the highest level of CAT at 48 hours or the greatest percentage of lac z (β-galactosidase) staining cells at 24 hours was used to collate data for Table 1. As all compounds were not tested in a single experiment, absolute figures indicating transfection were not used. Rather, symbols are used to indicate the transfection efficiency relative to Lipofectamine (BRL), which was included as a control in all experiments. Table 1 thus indicates the relative efficiencies of a number of compounds in mediating the transfection of at least one cell type.
(§2) All test lipopeptide reagents were originally dissolved at 10 mM in 75% DMSO, and subsequently diluted with water to make a 2 mM stock stored at 4° C. Volumes of 2 mM stock lipopeptide ranging from 2 μl to 15 μl were diluted in 500 μl of DDME. 1 μg of plasmid pSVLCAT was separately diluted in 500 μl of DDME. Solutions were combined for 10-20 min at room temperature before adding to 500 μl of DDME in 60 mm dishes of subconfluent CHO cells (2×10^5 day-1) or Cos 1 cells (5×10^5 day-1); washed free of serum with DDME.
(§3) Cells were incubated for 6 hrs under standard conditions of 37° C. and 5% CO2 for 6 hours. 1.5 ml of DME/Hams+10% FCS (CHO) or DME+10% FCS (Cos 1) was added to the cells for overnight incubation. Fresh DME/Hams+10% FCS or DME+10% FCS was used to replace the medium for a further 24 hours prior to harvest. Cell lysates were prepared and assayed for CAT activity as described above. For Cos 1 cells, culture supernatants were assayed for CAT activity.
For transfection of pSVLCAT and subsequent assay of CAT enzyme, experiments "a" and "b" were carried out as described above.

CHO cells [2] = test: Transfection of pSVLCAT, CAT assay, CHO; format: cell-based, Chinese Hamster
Protocol: Protocol was the same for Verafectin and Transfectam (see above) with the exception that 0.5 μg of pSVLCAT DNA was used /60 mm dish.
Lipofectamine protocol was according to manufacturer's instructions. 0.5 μg pSVLCAT/60 mm dish. CHO cells seeded 1×10^5 /60 mm dish and adhered overnight in DME/Hams medium with 10% FCS.
Transfectam 5 or 10 μl 1mg/400 μl stock solution.
Lipofectamine 5 or 10 μl 2 mg/ml (mixed formulation 3:1 with DOPE). VerafectinA3 (K3ATP3) and VerafectinG2 (K3G[Glycine]TP2) each at 5, 10 and 15 μl of 2 mM (2.8 and 2.3 mg/ml respectively) stock.
The serum free incubation period in the presence of test agents and DNA was 6 hours, then 1 ml DME/Hams+10% FCS was added. At 24 hrs the medium was changed to 2 ml of fresh DME/Hams+10% FCS until harvest at 48 hrs.
as §1, §2, §3
a. Using the standard transfection procedure described above, and 1 μg plasmid pSVLCAT, these formulations were tested on CHO cells at a single concentration equivalent to 10 μl of Verafectin A2 (2 mM) per sample and compared to unformulated compound and Lipofectamine in the same cell type. CAT production was assayed 48 hours after transfection.

Cos 1 cells [3] = test: β-gal microtitre plate transfection assay, Cos 1; format: cell-based, African Green Monkey
Description: (§4) For experiment "c", a plasmid pPGKlaczNLS encoding β-galactosidase under the control of the mouse PGK promoter (kind gift from G.Hannan) or pSVGAL which utilises the SV40 early promoter (Sleigh, M. J. and Lockett, T. J. (1985). EMBO J. 4:3831-3837),was transfected. This experiment and assay were modified from Feigner et al J. Biol Chem. 269(4) 2550-2561 1994. This protocol allows the simultaneous assessment of 72 different combinations and concentrations of DNA and test agent in a microtitre tray. […] Cytotoxicity was assessed using alamar blue, and a sample graph is shown for experiment a.
Compounds were tested for their ability to transfect either the CAT or β-gal gene carried on plasmids, and assayed as described above.
(§5) The ratio of [lipid]/[DNA] at which that maximum was achieved is shown. Experiments shown were carried out in Cos 1 cells, as described above. MTS OD is a measure of relative viabilility of the cells exposed to the different agents, a higher value indicates greater cell viability. * These points were taken from a separate experiment and some slight variation between absolute numbers should be expected between experiments.
(§6) Each of these compounds was tested for transfection ability and cytotoxicity on standard cell lines using standard conditions as described above.
(§7) The ratio of [lipid]/[DNA] at which that maximum was achieved is shown in brackets for the two different cell types in the following order; (Cos 1) (CHO). Experiments shown were carried out in Cos 1 cells, as described above. Viability was measured with the dye alamar blue . # Denotes compounds tested in a separate experiment. * Viability in this experiment was determined with MTS. OD is a measure of relative viability of the cells exposed to the different agents, and as with alamar blue, a higher value indicates greater cell viability.

Cos 1 cells [4] = format: cell-based, African Green Monkey
Protocol: Relative levels of cytotoxicity were also assayed in subsequent experiments using the dye MTS, marketed as Cell titre 96 Aqueous (Promega).
as §5, §7

Cos 1 cells [5] = format: cell-based, African Green Monkey; remark: listed apart in the source
Description: (§8) Relative levels of cytotoxicity caused by the different agents were compared during the experiment using the dye "Alamar Blue" (Alamar, Sacramento Calif.).
as §4, §5, §7

[6] = Electron microscopy of formulated and unformulated compounds; format: physicochemical; conditions: negatively stained
Protocol: Solutions of formulated and unformulated compounds were analysed for potential membrane-like structure. In separate experiments the following samples were analysed:
a: Negatively stained samples of formulated compounds K3ATP2:DOPE, DOPE and the unformulated compounds K3C7ATL3 and Lipofectamine.
b: Rotary shadowed samples of K3C7ATL3 and Lipofectamine mixed with two ratios of nucleotide (plasmid).
Stock samples of liposomes at 2 mM, were diluted 1 in 10 with filtered distilled water, and mixed 1:1 with filtered negative stain (Ammonium Molybdate 2%, pH 6.5) and spread onto carbon-formvar coated copper/rhodium 200 mesh electron microscope grids, and examined in a Jeol JEM 100CX electron microscope at 60 kV at magnifications of between 33 k and 100 k.
Ratios of 0.69, and 0.25, of liposome:1 mole DNA nucleotides were diluted in water and mixed for 10 min at room temperature, spread onto carbon-formvar coated grids and rotary metal-shadowed with platinum-palladium (60:40) evaporated at an angle of 7° and examined in the electron microscope at 60 kV at magnifications between 26 k and 66 k.

CHO cells [7] = test: β-gal microtitre plate transfection assay, CHO; format: cell-based, Chinese Hamster; conditions: Table 3, CHO; for β-gal (CHO): highest reading of 72 conditions
Description: as §4, §6, §7

CHO cells [8] = format: cell-based, Chinese Hamster
Protocol: (LEGEND--FIGS. 7, 8 and 9; none; no agent used with plasmid DNA, rb/blank; reagent blank, number following description of compound indicates no. μl of 2 mM stock (diluted with water). 7b: 100% cell survival was taken from dishes which were "mock transfected" with no DNA or transfection agent. 0% viability was assayed in the absence of cells. Viability was assessed using the dye alamar blue.)
as §8, §7

[9] = Table 3, Cos 1, highest reading of 72 conditions
[10] = Table 2, Cos 1, * separate experiment

| SMILES | ratio [lipid]/[DNA] at which maximum was achieved (Cos 1 cells [3]; Table 2, Cos 1) | β-gal (Cos 1) (Cos 1 cells [3]; [9]) | Viability (Cos 1) (Cos 1 cells [5]) | units β-gal (Cos 1 cells [3]; [10]) | ratio [lipid]/[DNA] at which maximum was achieved (Cos 1 cells [3]; Table 3, Cos 1) | ratio [lipid]/[DNA] at which maximum was achieved (CHO cells [7]) | β-gal (CHO) (CHO cells [7]) | Viability (CHO) (CHO cells [8]) | other results |
| --- | --- | --- | --- | --- | --- | --- | --- | --- | --- |
| CCCCCCCCCCCCCCCC(=O)OCC(COC(=O)CCCCCCCCCCCCCCC)(COC(=O)CCCCCCCCCCCCCCC)NC(=O)[C@H](C)NC(=O)[C@H](CCCCN)NC(=O)[C@H](CCCCN)NC(=O)[C@@H](N)CCCCN [K3ATP3, trilysine alanine tris tripalmitate] (H-KKKA-{NHC(CH2O-Palmitoyl)3}) | 0.69 | 3.52 × 10^-5 | 0.077 |  |  |  |  |  | amount giving peak CAT level (Cos 1 cells [1]; Experiment 1, 2.5 mg/ml stock, 10 μl (25 μg)): 10 µL; CAT levels (Cos 1 cells [1]; Experiment 1, 5 μl (12.5 μg) and above, 48 hours): Significant CAT levels; reduction of CAT levels, overnight compared to 6 hour incubation (Cos 1 cells [1]; Experiment 2): approximately 50%; CAT levels (Cos 1 cells [1]; Experiment 2, 10 μl (25 μg) and above): Significant levels of CAT; transfection level relative to Lipofectamine (Cos 1 cells [1]; Experiment 4, Cos 1, 48 hours): approximately 60%; Transfection (CAT) (Cos 1 cells [1]; Table 1, Cos 1, optimised level of agent): +++(+); CAT activity (mean) (CHO cells [2]; "x" peptide experiment a, CHO, 25 μl lysate, 20 min assay at 37° C., optimal level): 6237 cpm; mean level of CAT activity (CHO cells [2]; "x" peptide experiment c, CHO, 2 hours incubation of 20 μl lysate): 13467; CAT levels relative to Lipofectamine (CHO cells [2]; Experiment 3, CHO, 5 μl): ~18%; CAT levels relative to Transfectam (CHO cells [2]; Experiment 3, CHO, 5 μl): approximately 54%; CAT activity (mean) (CHO cells [2]; R1-R4 experiment e, CHO): 8325 cpm; Transfection (CAT) (CHO cells [2]; Table 1, CHO, optimised level of agent): +++; units β-gal (Cos 1 cells [3]; Table 2, Cos 1, highest reading of 72 conditions): 2.73 × 10^-4 units; β-gal (Cos 1) (Cos 1 cells [3]; Table 3, Cos 1, # tested in a separate experiment): 2.73 × 10^-4; MTS OD490-655 (Cos 1 cells [4]): 1.244; Viability (Cos 1) (Cos 1 cells [4]): 1.24 |
| CCCCCCCC/C=C\CCCCCCCC(=O)OC[C@H](COP(=O)(O)OCCN)OC(=O)CCCCCCC/C=C\CCCCCCCC [DOPE, Dioleoyl phosphatidyl ethanolamine, reference compound] |  |  |  |  |  |  |  |  | transfection by DOPE alone (CHO cells [2]; CHO, unformulated or "formulated"): gave no transfection; liposome structure (TEM) [6]: does not form a true liposome; also recorded: did not under the same conditions |
| CCCCCCCCCCCCCC(=O)OCC(CO)(CO)NC(=O)[C@H](C)NC(=O)[C@H](CCCCN)NC(=O)[C@H](CCCCN)NC(=O)[C@@H](N)CCCCN [K3ATM1] (H-KKKA-X3) | 0.69 | 5.85 × 10^-6 | 0.102 | 5.85 × 10^-6 units | .69 | .69 | 5.18 × 10^-6 | 0.07 |  |
| CCCCCCCCCCCC(=O)OCC(CO)(CO)NC(=O)[C@H](C)NC(=O)[C@H](CCCCN)NC(=O)[C@H](CCCCN)NC(=O)[C@@H](N)CCCCN [K3ATL1] (H-KKKA-X2) | 0.35 | 1.09 × 10^-5 | 0.104 | 1.09 × 10^-5 units | .35 | 2.77 | 2.99 × 10^-6 | 0.072 |  |

Source: US5906922A, “Delivery of nucleic acids” (Commonwealth Scientific and Industrial Research Organisation, priority 1994, dated 1999)
